In brackets after ≈: the same amount, converted by molar mass.
Assays:
Escherichia coli [1] = test: Antibacterial activity against ESBLs negative Carbapenem-sensitive Escherichia coli 17-19 assessed as reduction in bacterial growth; format: functional
Escherichia coli [2] = test: Antibacterial activity against ESBLs positive Carbapenem-sensitive Escherichia coli 17-10 assessed as reduction in bacterial growth in the presence of Avibactam; format: functional
Escherichia coli [3] = test: Antibacterial activity against Escherichia coli 15-5 overexpressing extended spectrum beta-lactamases assessed as reduction in bacterial growth; format: functional
Acinetobacter baumannii [4] = test: Antibacterial activity against Carbapenem- resistant Acinetobacter baumannii 17-12 assessed as reduction in bacterial growth in the presence of Avibactam; format: functional
Klebsiella pneumoniae [5] = test: Antibacterial activity against Carbapenem- resistant Klebsiella pneumoniae KR 15-7 assessed as reduction in bacterial growth in the presence of Avibactam; format: functional
Escherichia coli [6] = test: Antibacterial activity against Escherichia coli 15-4 overexpressing extended spectrum beta-lactamases assessed as reduction in bacterial growth; format: functional
Escherichia coli [7] = test: Antibacterial activity against Escherichia coli 15-3 overexpressing extended spectrum beta-lactamases assessed as reduction in bacterial growth; format: functional
Enterobacter cloacae [8] = test: Antibacterial activity against Enterobacter cloacae 17-2 assessed as reduction in bacterial growth
Klebsiella pneumoniae [9] = test: Bactericidal activity against Carbapenem- resistant Klebsiella pneumoniae KR 15-7 assessed as reduction in bacterial growth in the presence of avibactam; format: functional
Escherichia coli [10] = test: Bactericidal activity against ESBLs positive Carbapenem-sensitive Escherichia coli 17-18 assessed as reduction in bacterial growth; format: functional
Escherichia coli [11] = test: Antibacterial activity against ESBLs positive Carbapenem- sensitive Escherichia coli 17-17 assessed as reduction in bacterial growth in the presence of Avibactam; format: functional
Escherichia coli [12] = test: Antibacterial activity against Escherichia coli 15-4 overexpressing extended spectrum beta-lactamases assessed as reduction in bacterial growth in the presence of Avibactam; format: functional
Klebsiella aerogenes [13] = test: Antibacterial activity against Enterobacter aerogenes 15-7 assessed as reduction in bacterial growth in the presence of Avibactam; format: functional
Klebsiella aerogenes [14] = test: Bactericidal activity against Enterobacter aerogenes 17-4 assessed as reduction in bacterial growth in the presence of avibactam; format: functional
Pseudomonas aeruginosa [15] = test: Antibacterial activity against Carbapenem- sensitive Pseudomonas aeruginosa 17-24 assessed as reduction in bacterial growth in the presence of Avibactam; format: functional
Klebsiella pneumoniae [16] = test: Bactericidal activity against ESBLs positive Carbapenem-sensitive Klebsiella pneumoniae 17-2 assessed as reduction in bacterial growth in the presence of avibactam; format: functional
Klebsiella aerogenes [17] = test: Bactericidal activity against Enterobacter aerogenes 17-1 assessed as reduction in bacterial growth in the presence of avibactam; format: functional
Acinetobacter baumannii [18] = test: Antibacterial activity against Carbapenem- resistant Acinetobacter baumannii 17-10 assessed as reduction in bacterial growth in the presence of Avibactam; format: functional
Klebsiella pneumoniae [19] = test: Bactericidal activity against ESBLs negative Carbapenem-sensitive Klebsiella pneumoniae 17-16 assessed as reduction in bacterial growth in the presence of avibactam; format: functional
Acinetobacter baumannii [20] = test: Antibacterial activity against Multidrug resistant Acinetobacter baumannii AR 15-4 assessed as reduction in bacterial growth in the presence of Avibactam; format: functional
Pseudomonas aeruginosa [21] = test: Antibacterial activity against Carbapenem- sensitive Pseudomonas aeruginosa 17-11 assessed as reduction in bacterial growth in the presence of Avibactam; format: functional
Acinetobacter baumannii [22] = test: Antibacterial activity against Multidrug resistant Acinetobacter baumannii AR 15-3 assessed as reduction in bacterial growth in the presence of Avibactam; format: functional
Klebsiella aerogenes [23] = test: Antibacterial activity against Enterobacter aerogenes 17-4 assessed as reduction in bacterial growth in the presence of Avibactam; format: functional
Escherichia coli [24] = test: Antibacterial activity against Escherichia coli NCTC 13353 assessed as reduction in bacterial growth in the presence of Avibactam; format: functional
Acinetobacter baumannii [25] = test: Antibacterial activity against Carbapenem- resistant Acinetobacter baumannii 17-5 assessed as reduction in bacterial growth in the presence of Avibactam; format: functional
Escherichia coli [26] = test: Antibacterial activity against ESBLs positive Carbapenem-sensitive Escherichia coli 17-18 assessed as reduction in bacterial growth in the presence of Avibactam; format: functional
Klebsiella pneumoniae [27] = test: Antibacterial activity against ESBLs positive Carbapenem-sensitive Klebsiella pneumoniae 17-4 assessed as reduction in bacterial growth in the presence of Avibactam; format: functional
Enterococcus faecalis = test: Antibacterial activity against Enterococcus faecalis ATCC 51299 assessed as reduction in bacterial growth in the presence of Avibactam; format: functional
Pseudomonas aeruginosa [28] = test: Antibacterial activity against Carbapenem- sensitive Pseudomonas aeruginosa 17-7 assessed as reduction in bacterial growth in the presence of Avibactam; format: functional
Klebsiella pneumoniae [29] = test: Bactericidal activity against Carbapenem- resistant Klebsiella pneumoniae KR 15-4 assessed as reduction in bacterial growth in the presence of avibactam; format: functional
Klebsiella pneumoniae [30] = test: Antibacterial activity against ESBLs positive Carbapenem-sensitive Klebsiella pneumoniae 17-12 assessed as reduction in bacterial growth in the presence of Avibactam; format: functional
Klebsiella pneumoniae [31] = test: Bactericidal activity against ESBLs positive Carbapenem-sensitive Klebsiella pneumoniae 17-12 assessed as reduction in bacterial growth in the presence of avibactam; format: functional
Klebsiella pneumoniae [32] = test: Antibacterial activity against ESBLs positive Carbapenem-sensitive Klebsiella pneumoniae 17-9 assessed as reduction in bacterial growth in the presence of Avibactam; format: functional
Pseudomonas aeruginosa [33] = test: Bactericidal activity against carbapenem-sensitive Pseudomonas aeruginosa 17-29 assessed as reduction in bacterial growth; format: functional
Klebsiella aerogenes [34] = test: Antibacterial activity against Enterobacter aerogenes 17-5 assessed as reduction in bacterial growth in the presence of Avibactam; format: functional
Acinetobacter baumannii [35] = test: Antibacterial activity against Carbapenem- resistant Acinetobacter baumannii 17-13 assessed as reduction in bacterial growth in the presence of Avibactam; format: functional
Acinetobacter baumannii [36] = test: Bactericidal activity against Carbapenem- resistant Acinetobacter baumannii 17-6 assessed as reduction in bacterial growth; format: functional
Pseudomonas aeruginosa [37] = test: Bactericidal activity against carbapenem-sensitive Pseudomonas aeruginosa 17-10 assessed as reduction in bacterial growth in the presence of avibactam; format: functional
Enterobacter cloacae [38] = test: Bactericidal activity against Enterobacter cloacae 17-10 assessed as reduction in bacterial growth in the presence of avibactam; format: functional
Klebsiella pneumoniae [39] = test: Bactericidal activity against Carbapenem- resistant Klebsiella pneumoniae KR 15-8 assessed as reduction in bacterial growth in the presence of avibactam; format: functional
Pseudomonas aeruginosa [40] = test: Bactericidal activity against carbapenem-sensitive Pseudomonas aeruginosa 17-9 assessed as reduction in bacterial growth in the presence of avibactam; format: functional
Escherichia coli [41] = test: Antibacterial activity against ESBLs positive Carbapenem-sensitive Escherichia coli 17-11 assessed as reduction in bacterial growth in the presence of Avibactam; format: functional
Klebsiella aerogenes [42] = test: Bactericidal activity against Enterobacter aerogenes 17-3 assessed as reduction in bacterial growth in the presence of avibactam; format: functional
Klebsiella pneumoniae [43] = test: Antibacterial activity against Klebsiella pneumoniae ATCC 700603 assessed as reduction in bacterial growth in the presence of Avibactam; format: functional
Escherichia coli [44] = test: Antibacterial activity against Escherichia coli 15-5 overexpressing extended spectrum beta-lactamases assessed as reduction in bacterial growth in the presence of Avibactam; format: functional
Acinetobacter baumannii [45] = test: Bactericidal activity against Carbapenem- resistant Acinetobacter baumannii 17-3 assessed as reduction in bacterial growth in the presence of avibactam; format: functional
Acinetobacter baumannii [46] = test: Bactericidal activity against Carbapenem- resistant Acinetobacter baumannii 17-5 assessed as reduction in bacterial growth in the presence of avibactam; format: functional

SMILES: C[C@@H](O)[C@H]1C(=O)N2C(C(=O)O)=C(S[C@@H]3CN[C@H](C(=O)N(C)C)C3)[C@H](C)[C@H]12 [MEROPENEM]
- MIC (Escherichia coli [1]): < 0.03 µg/mL

SMILES: CC(C)(O/N=C(\C(=O)N[C@@H]1C(=O)N2C(C(=O)[O-])=C(C[n+]3ccccc3)CS[C@H]12)c1csc(N)n1)C(=O)O [CEFTAZIDIME]
- MIC (Escherichia coli [2]): 0.5 µg/mL
- MIC (Escherichia coli [3]): 32 µg/mL (≈ 58.5 µM)
- MIC (Acinetobacter baumannii [4]): 8 µg/mL
- MIC (Klebsiella pneumoniae [5]): 2 µg/mL
- MIC (Escherichia coli [6]): 16 µg/mL (≈ 29.3 µM)
- MIC (Escherichia coli [7]): 8 µg/mL (≈ 14.6 µM)
- MIC (Enterobacter cloacae [8]): 64 µg/mL (≈ 117 µM)
- MBC (Klebsiella pneumoniae [9]): 2 µg/mL
- MBC (Escherichia coli [10]): 2 µg/mL (≈ 3.66 µM)
- MIC (Escherichia coli [11]): 0.5 µg/mL
- MIC (Escherichia coli [12]): 0.5 µg/mL
- MIC (Klebsiella aerogenes [13]): 1 µg/mL
- MBC (Klebsiella aerogenes [14]): 0.5 µg/mL
- MIC (Pseudomonas aeruginosa [15]): 2 µg/mL
- MBC (Klebsiella pneumoniae [16]): 0.25 µg/mL
- MBC (Klebsiella aerogenes [17]): 1 µg/mL
- MIC (Acinetobacter baumannii [18]): 4 µg/mL
- MBC (Klebsiella pneumoniae [19]): 0.25 µg/mL
- MIC (Acinetobacter baumannii [20]): 8 µg/mL
- MIC (Pseudomonas aeruginosa [21]): 0.5 µg/mL
- MIC (Acinetobacter baumannii [22]): 16 µg/mL
- MIC (Klebsiella aerogenes [23]): 0.5 µg/mL
- MIC (Escherichia coli [24]): 0.5 µg/mL
- MIC (Acinetobacter baumannii [25]): 8 µg/mL
- MIC (Escherichia coli [26]): 0.5 µg/mL
- MIC (Klebsiella pneumoniae [27]): 4 µg/mL
- MIC (Enterococcus faecalis): > 64 µg/mL
- MIC (Pseudomonas aeruginosa [28]): 0.125 µg/mL
- MBC (Klebsiella pneumoniae [29]): 2 µg/mL
- MIC (Klebsiella pneumoniae [30]): 1 µg/mL
- MBC (Klebsiella pneumoniae [31]): 1 µg/mL
- MIC (Klebsiella pneumoniae [32]): 0.5 µg/mL
- MBC (Pseudomonas aeruginosa [33]): 4 µg/mL (≈ 7.32 µM)
- MIC (Klebsiella aerogenes [34]): 0.5 µg/mL
- MIC (Acinetobacter baumannii [35]): 2 µg/mL
- MBC (Acinetobacter baumannii [36]): > 64 µg/mL
- MBC (Pseudomonas aeruginosa [37]): 0.5 µg/mL
- MBC (Enterobacter cloacae [38]): 1 µg/mL
- MBC (Klebsiella pneumoniae [39]): 4 µg/mL
- MBC (Pseudomonas aeruginosa [40]): 0.25 µg/mL
- MIC (Escherichia coli [41]): 0.5 µg/mL
- MBC (Klebsiella aerogenes [42]): 0.25 µg/mL
- MIC (Klebsiella pneumoniae [43]): 4 µg/mL
- MIC (Escherichia coli [44]): 1 µg/mL
- MBC (Acinetobacter baumannii [45]): 8 µg/mL
- MBC (Acinetobacter baumannii [46]): 16 µg/mL

SMILES: Nc1nc(/C(=N/OCc2cc(=O)c(O)cn2O)C(=O)N[C@@H]2C(=O)N3C(C(=O)O)=CCS[C@H]23)cs1
- MIC (Escherichia coli [2]): 0.06 µg/mL
- MIC (Escherichia coli [3]): > 64 µg/mL
- MIC (Acinetobacter baumannii [4]): 16 µg/mL
- MIC (Escherichia coli [1]): 1 µg/mL (≈ 1.97 µM)
- MIC (Klebsiella pneumoniae [5]): 1 µg/mL
- MIC (Escherichia coli [6]): > 64 µg/mL
- MIC (Escherichia coli [7]): 64 µg/mL (≈ 126 µM)
- MIC (Enterobacter cloacae [8]): > 64 µg/mL
- MBC (Klebsiella pneumoniae [9]): 2 µg/mL
- MBC (Escherichia coli [10]): 32 µg/mL (≈ 62.9 µM)
- MIC (Escherichia coli [11]): 0.5 µg/mL
- MIC (Escherichia coli [12]): 0.5 µg/mL
- MIC (Klebsiella aerogenes [13]): 2 µg/mL
- MBC (Klebsiella aerogenes [14]): 1 µg/mL
- MIC (Pseudomonas aeruginosa [15]): 4 µg/mL
- MBC (Klebsiella pneumoniae [16]): 0.125 µg/mL
- MBC (Klebsiella aerogenes [17]): 4 µg/mL
- MIC (Acinetobacter baumannii [18]): 16 µg/mL
- MBC (Klebsiella pneumoniae [19]): 0.06 µg/mL
- MIC (Acinetobacter baumannii [20]): 8 µg/mL
- MIC (Pseudomonas aeruginosa [21]): 2 µg/mL
- MIC (Acinetobacter baumannii [22]): 8 µg/mL
- MIC (Klebsiella aerogenes [23]): 1 µg/mL
- MIC (Escherichia coli [24]): 0.5 µg/mL
- MIC (Acinetobacter baumannii [25]): 16 µg/mL
- MIC (Escherichia coli [26]): 0.5 µg/mL
- MIC (Klebsiella pneumoniae [27]): 2 µg/mL
- MIC (Enterococcus faecalis): > 64 µg/mL
- MIC (Pseudomonas aeruginosa [28]): 0.25 µg/mL
- MBC (Klebsiella pneumoniae [29]): 8 µg/mL
- MIC (Klebsiella pneumoniae [30]): 0.125 µg/mL
- MBC (Klebsiella pneumoniae [31]): 0.125 µg/mL
- MIC (Klebsiella pneumoniae [32]): 0.5 µg/mL
- MBC (Pseudomonas aeruginosa [33]): 8 µg/mL (≈ 15.7 µM)
- MIC (Klebsiella aerogenes [34]): 2 µg/mL
- MIC (Acinetobacter baumannii [35]): 2 µg/mL
- MBC (Acinetobacter baumannii [36]): > 64 µg/mL
- MBC (Pseudomonas aeruginosa [37]): 4 µg/mL
- MBC (Enterobacter cloacae [38]): 1 µg/mL
- MBC (Klebsiella pneumoniae [39]): 16 µg/mL
- MBC (Pseudomonas aeruginosa [40]): 4 µg/mL
- MIC (Escherichia coli [41]): 4 µg/mL
- MBC (Klebsiella aerogenes [42]): 0.5 µg/mL
- MIC (Klebsiella pneumoniae [43]): 64 µg/mL
- MIC (Escherichia coli [44]): 0.5 µg/mL
- MBC (Acinetobacter baumannii [45]): 16 µg/mL
- MBC (Acinetobacter baumannii [46]): 16 µg/mL

From ChEMBL document CHEMBL4813981, “Synthesis and in vitro antibacterial activity of new aminothiazole-oximepiperidone cephalosporins” (2021)
